From the supplement of paper PMC10307832

Columns and labels:
Test in all cases: relative viability (nuclei count vs DMSO), 5 days (fraction); higher = more cells survive
Bosutinib + Linsitinib = compound: COc1cc(Nc2c(C#N)cnc3cc(OCCCN4CCN(C)CC4)c(OC)cc23)c(Cl)cc1Cl [Bosutinib] + C[C@]1(O)C[C@@H](c2nc(-c3ccc4ccc(-c5ccccc5)nc4c3)c3c(N)nccn32)C1 [Linsitinib] (partner 1 µM)
In short: (§1)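 Dosing by pin tool came one day after lung cancer cell lines were seeded in 1536-well plates, using either one drug or a fixed anchor-drug dose plus five library-drug doses (not always all listed) in √10 steps. After 5 days, nuclei were counted on 4× images. Relative viability is treated-well nuclei count divided by vehicle-well nuclei count, and values are medians of duplicate plates.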

Bosutinib + Crizotinib = compound: COc1cc(Nc2c(C#N)cnc3cc(OCCCN4CCN(C)CC4)c(OC)cc23)c(Cl)cc1Cl [Bosutinib] + C[C@@H](Oc1cc(-c2cnn(C3CCNCC3)c2)cnc1N)c1c(Cl)ccc(F)c1Cl [Crizotinib] (partner 1 µM)
In short: as §1

Bosutinib + Pictilisib = compound: COc1cc(Nc2c(C#N)cnc3cc(OCCCN4CCN(C)CC4)c(OC)cc23)c(Cl)cc1Cl [Bosutinib] + CS(=O)(=O)N1CCN(Cc2cc3nc(-c4cccc5[nH]ncc45)nc(N4CCOCC4)c3s2)CC1 [Pictilisib] (partner 1 µM)
In short: as §1

Bosutinib + Alpelisib = compound: COc1cc(Nc2c(C#N)cnc3cc(OCCCN4CCN(C)CC4)c(OC)cc23)c(Cl)cc1Cl [Bosutinib] + Cc1nc(NC(=O)N2CCC[C@H]2C(N)=O)sc1-c1ccnc(C(C)(C)C(F)(F)F)c1 [Alpelisib] (partner 2 µM)
In short: as §1

Bosutinib + Bortezomib = compound: COc1cc(Nc2c(C#N)cnc3cc(OCCCN4CCN(C)CC4)c(OC)cc23)c(Cl)cc1Cl [Bosutinib] + CC(C)C[C@H](NC(=O)[C@H](Cc1ccccc1)NC(=O)c1cnccn1)B(O)O [Bortezomib] (partner 0.002 µM)
In short: as §1

Row | Cell Line | relative viability (Bosutinib + Linsitinib; first compound 0.01 µM) | relative viability (Bosutinib + Linsitinib; first compound 0.03162 µM) | relative viability (Bosutinib + Linsitinib; first compound 0.1 µM) | relative viability (Bosutinib + Linsitinib; first compound 1 µM) | relative viability (Bosutinib + Crizotinib; first compound 0.01 µM) | relative viability (Bosutinib + Crizotinib; first compound 0.03162 µM) | relative viability (Bosutinib + Crizotinib; first compound 0.1 µM) | relative viability (Bosutinib + Crizotinib; first compound 1 µM) | relative viability (Bosutinib + Pictilisib; first compound 0.01 µM) | relative viability (Bosutinib + Pictilisib; first compound 0.03162 µM) | relative viability (Bosutinib + Pictilisib; first compound 0.1 µM) | relative viability (Bosutinib + Pictilisib; first compound 1 µM) | relative viability (Bosutinib + Alpelisib; first compound 0.01 µM) | relative viability (Bosutinib + Alpelisib; first compound 0.03162 µM) | relative viability (Bosutinib + Alpelisib; first compound 0.1 µM) | relative viability (Bosutinib + Alpelisib; first compound 1 µM) | relative viability (Bosutinib + Bortezomib; first compound 0.01 µM) | relative viability (Bosutinib + Bortezomib; first compound 0.03162 µM) | relative viability (Bosutinib + Bortezomib; first compound 0.1 µM) | relative viability (Bosutinib + Bortezomib; first compound 1 µM)
1 | HCC-78 | 0.575 | 0.492 | 0.52 | 0.407 | 0.358 | 0.319 | 0.284 | 0.314 | 0.2 | 0.196 | 0.269 | 0.301 | 0.349 | 0.31 | 0.393 | 0.32 | 0.551 | 0.486 | 0.428 | 0.429
2 | HCC-366 | 0.708 | 0.604 | 0.457 | 0.0753 | 0.59 | 0.6 | 0.516 | 0.316 | 0.154 | 0.144 | 0.181 | 0.121 | 0.532 | 0.416 | 0.305 | 0.111 | 1.11 | 1.01 | 1.06 | 0.989
3 | HCC-827 | 0.987 | 0.967 | 0.914 | 0.843 | 0.874 | 0.943 | 0.91 | 0.605 | 0.971 | 0.763 | 1.12 | 0.749 | 0.972 | 0.971 | 1.03 | 0.576 | 1.03 | 1 | 1.03 | 0.928
4 | HOP-62 | 0.881 | 0.949 | 1.01 | 1.11 | 0.897 | 0.949 | 0.964 | 0.986 | 0.898 | 0.787 | 0.698 | 0.819 | 0.977 | 1 | 1.1 | 0.889 | 0.839 | 0.755 | 0.548 | 0.904
5 | IA-LM | 0.637 | 0.744 | 0.754 | 0.745 | 0.733 | 0.777 | 0.839 | 0.688 |  | 0.365 | 0.317 | 0.359 | 0.832 | 0.733 | 0.931 | 0.674 | 0.797 | 0.827 | 0.881 | 0.8
6 | LC-2-ad | 0.902 | 0.879 | 0.871 | 0.78 | 0.449 | 0.473 | 0.445 | 0.539 | 0.571 | 0.45 | 0.459 | 0.419 | 0.883 | 0.975 | 0.92 | 0.864 | 1.05 | 0.98 | 1.02 | 1.14
7 | LCLC-97TM1 | 0.213 | 0.216 | 0.209 | 0.175 | 0.369 | 0.494 | 0.443 | 0.414 | 0.182 | 0.221 | 0.254 | 0.267 | 0.232 | 0.244 | 0.371 | 0.344 | 0.567 | 0.937 | 0.894 | 0.572
8 | LCLC-103H | 1.11 | 1.12 | 1.04 | 1.04 | 1.03 | 1.11 | 0.992 | 0.849 | 0.632 | 0.68 | 0.702 | 0.646 | 0.992 | 1.06 | 0.94 | 0.871 | 1.03 | 1.13 | 1.13 | 0.936
9 | LK-2 | 0.671 | 0.55 | 0.523 | 0.337 | 0.258 | 0.227 | 0.248 | 0.224 | 0.645 | 0.603 | 0.577 | 0.378 | 1.11 | 1.08 | 1.05 | 0.761 |  |  |  | 
10 | LOU-NH91 | 0.939 | 0.921 | 0.834 | 0.521 | 0.737 | 0.723 | 0.707 | 0.49 | 0.492 | 0.524 | 0.504 | 0.468 | 0.807 | 0.7 | 0.638 | 0.46 | 0.469 | 0.487 | 0.514 | 0.578
11 | LU99A | 0.587 | 0.576 | 0.584 | 0.678 | 0.527 | 0.561 | 0.563 | 0.647 | 0.324 | 0.321 | 0.375 | 0.345 | 0.53 | 0.545 | 0.568 | 0.674 | 1.16 | 1.17 | 1.33 | 0.938
12 | NCI-H358 | 0.787 | 0.753 | 0.602 | 0.594 | 0.516 | 0.512 | 0.505 | 0.647 | 0.407 | 0.368 | 0.363 | 0.379 | 0.862 | 0.817 | 0.771 | 0.585 |  |  |  | 
13 | NCI-H1395 | 1.28 | 1.17 | 1.27 | 0.994 |  |  |  |  | 0.597 | 0.758 | 0.818 | 0.719 | 1.23 | 1.09 | 1.18 | 0.913 |  |  |  | 
14 | NCI-H1650 |  |  |  |  | 0.921 | 0.989 | 0.908 | 0.496 | 0.587 | 0.516 | 0.524 | 0.49 |  |  |  |  | 0.215 | 0.204 | 0.214 | 0.279
15 | NCI-H1793 | 0.875 | 0.742 | 0.904 | 0.551 |  |  |  |  | 0.394 | 0.321 | 0.383 | 0.292 | 0.669 | 0.603 | 0.711 | 0.49 |  |  |  | 
16 | NCI-H1944 | 1.18 | 1.25 | 1.14 | 0.809 | 1.16 | 1.07 | 1.09 | 0.946 | 0.35 | 0.327 | 0.333 | 0.345 | 0.849 | 0.826 | 0.826 | 0.614 |  |  |  | 
17 | NCI-H2170 |  |  |  |  | 1.25 | 1.14 | 1.15 | 1.06 | 0.348 | 0.359 | 0.301 | 0.271 | 0.821 | 0.866 | 0.797 | 0.711 |  |  |  | 
18 | SK-MES-1 | 1.16 | 1.07 | 1.08 | 0.941 | 0.954 | 1.03 | 0.997 | 0.96 | 0.374 | 0.351 | 0.437 | 0.305 | 0.876 | 0.971 | 0.999 | 1.06 |  |  |  | 
